{"source": "patent US20090311237A1", "about": "“Combination therapy using a soluble hyaluronidase and a bisphosphonate” (priority 2008, published 2009)", "assay": "Phase 1 Stage 1 clinical pharmacokinetics of SC ZA co-administered with rHuPH20", "assay_type": "in vivo, human", "settings": "human, serum, sc, serum; for concentration at 6 h: 6 h post infusion; for concentration at 8 h: 8 h post infusion; for concentration at 12 h: 12 h post infusion; for concentration at 0 h: 0 h post infusion; for concentration at 10 min: 10 min post infusion; for concentration at 0.5 h: 0.5 h post infusion; for concentration at 1 h: 1 h post infusion; for concentration at 2 h: 2 h post infusion; for concentration at 4 h: 4 h post infusion; for concentration at 24 h: 24 h post infusion; for concentration at 48 h: 48 h post infusion", "experimental": "A pharmacokinetic study of zoledronic acid (ZA) co-administered with rHuPH20 in human subjects was conducted. The primary objective of the study was to determine the bioavailability of zoledronic acid dosed via subcutaneous (SC) co-administration with human recombinant hyaluronidase PH20 (rHuPH20). […] The patients were administered the prescribed dosage formulations as follows: Cohorts 1-5 were administered a single subcutaneous infusion in a dosage volume of 100 ml at a rate of 3 mL/min. […] The dosing solution is administered via needle or catheter into the SC space of the left anterior thigh (midway between the anterior iliac crest and the cephalad border of the patella). For cohorts 1-5, the dosing solutions were administered by a controlled rate infusion pump at approximately 3 mL/minute. […] The dosing solutions were administered by syringe push bolus injection. […] Serum concentration of ZA was determined using a qualified LC-MS-MS assay after derivatization with diazomethane (Zhu, L S et al. (2006) Rapid Commun. […] The assay range was from 2.0 to 400 ng/mL with a lower limit of quantitation (LLOQ) at 2.0 ng/mL. […] Non-compartmental analysis was used for derivation of primary and secondary pharmacokinetic (PK) parameters. […] Summary statistics (mean, standard deviation, and median) were calculated using JMP or Microsoft Excel.", "key": {"[1]": {"settings": "ZA 0.5 mg SC infusion + 24000 Units rHuPH20, n=3, read-out: Median Conc."}, "[2]": {"settings": "ZA 0.5 mg SC infusion + 24000 Units rHuPH20, individual subjects, read-out: Zoledronic Acid Concentration"}, "[3]": {"settings": "ZA 0.5 mg SC infusion + 24000 Units rHuPH20, n=3, read-out: Mean Conc."}, "[4]": {"settings": "ZA 1 mg SC infusion + 24000 Units rHuPH20, individual subjects, read-out: Zoledronic Acid Concentration"}, "[5]": {"settings": "ZA 1 mg SC infusion + 24000 Units rHuPH20, n=3, read-out: Mean Conc."}, "[6]": {"settings": "ZA 1 mg SC infusion + 24000 Units rHuPH20, n=3, read-out: Median Conc."}, "[7]": {"settings": "ZA 2 mg SC infusion + 24000 Units rHuPH20, individual subjects, read-out: Zoledronic Acid Concentration"}, "[8]": {"settings": "ZA 2 mg SC infusion + 24000 Units rHuPH20, n=3, read-out: Mean Conc."}, "[9]": {"settings": "ZA 2 mg SC infusion + 24000 Units rHuPH20, n=3, read-out: Median Conc."}, "[10]": {"settings": "ZA 5 mg SC infusion + 24000 Units rHuPH20, n=3, read-out: Mean Conc."}, "[11]": {"settings": "ZA 5 mg SC infusion + 24000 Units rHuPH20, n=3, read-out: Median Conc."}, "[12]": {"settings": "ZA 5 mg SC infusion + 24000 Units rHuPH20, individual subjects, read-out: Zoledronic Acid Concentration"}}, "note": "Where two headings read alike, the source gives them in different places.", "data": [{"compound": "O=P(O)(O)C(O)(Cn1ccnc1)P(=O)(O)O", "note": "[ZA, 1-hydroxy-2-(1H-imidazol-1-yl)ethylidene-1,1-bisphosphonic acid]", "values": [{"measurement": "concentration at 6 h", "setting": "[1]", "result": 2.53, "unit": "ng/mL"}, {"measurement": "concentration at 8 h", "setting": "[2]", "result": 1.19, "unit": "ng/mL"}, {"measurement": "concentration at 8 h", "setting": "[3]", "result": 1.32, "unit": "ng/mL"}, {"measurement": "concentration at 8 h", "setting": "[1]", "result": 1.34, "unit": "ng/mL"}, {"measurement": "concentration at 12 h", "setting": "[2]", "result": 0.52, "unit": "ng/mL"}, {"measurement": "concentration at 12 h", "setting": "[3]", "result": 0.54, "unit": "ng/mL"}, {"measurement": "concentration at 12 h", "setting": "[1]", "result": 0.55, "unit": "ng/mL"}, {"measurement": "concentration at 0 h", "setting": "[4]", "result": 28.4, "unit": "ng/mL"}, {"measurement": "concentration at 0 h", "setting": "[5]", "result": 20.5, "unit": "ng/mL"}, {"measurement": "concentration at 0 h", "setting": "[6]", "result": 17.9, "unit": "ng/mL"}, {"measurement": "concentration at 10 min", "setting": "[4]", "result": 32.1, "unit": "ng/mL"}, {"measurement": "concentration at 10 min", "setting": "[5]", "result": 27.2, "unit": "ng/mL"}, {"measurement": "concentration at 10 min", "setting": "[6]", "result": 25, "unit": "ng/mL"}, {"measurement": "concentration at 0.5 h", "setting": "[4]", "result": 33.4, "unit": "ng/mL"}, {"measurement": "concentration at 0.5 h", "setting": "[5]", "result": 28.1, "unit": "ng/mL"}, {"measurement": "concentration at 0.5 h", "setting": "[6]", "result": 28, "unit": "ng/mL"}, {"measurement": "concentration at 1 h", "setting": "[4]", "result": 29.9, "unit": "ng/mL"}, {"measurement": "concentration at 1 h", "setting": "[5]", "result": 25.5, "unit": "ng/mL"}, {"measurement": "concentration at 1 h", "setting": "[6]", "result": 27.2, "unit": "ng/mL"}, {"measurement": "concentration at 2 h", "setting": "[4]", "result": 24, "unit": "ng/mL"}, {"measurement": "concentration at 2 h", "setting": "[5]", "result": 19.6, "unit": "ng/mL"}, {"measurement": "concentration at 2 h", "setting": "[6]", "result": 17.7, "unit": "ng/mL"}, {"measurement": "concentration at 4 h", "setting": "[4]", "result": 13.3, "unit": "ng/mL"}, {"measurement": "concentration at 4 h", "setting": "[5]", "result": 10.3, "unit": "ng/mL"}, {"measurement": "concentration at 4 h", "setting": "[6]", "result": 10.2, "unit": "ng/mL"}, {"measurement": "concentration at 6 h", "setting": "[4]", "result": 5.48, "unit": "ng/mL"}, {"measurement": "concentration at 6 h", "setting": "[5]", "result": 4.9, "unit": "ng/mL"}, {"measurement": "concentration at 6 h", "setting": "[6]", "result": 5.47, "unit": "ng/mL"}, {"measurement": "concentration at 8 h", "setting": "[4]", "result": 2.44, "unit": "ng/mL"}, {"measurement": "concentration at 8 h", "setting": "[5]", "result": 2.69, "unit": "ng/mL"}, {"measurement": "concentration at 8 h", "setting": "[6]", "result": 2.46, "unit": "ng/mL"}, {"measurement": "concentration at 12 h", "setting": "[4]", "result": 1.02, "unit": "ng/mL"}, {"measurement": "concentration at 12 h", "setting": "[5]", "result": 1.09, "unit": "ng/mL"}, {"measurement": "concentration at 12 h", "setting": "[6]", "result": 1.02, "unit": "ng/mL"}, {"measurement": "concentration at 24 h", "setting": "[4]", "result": 0.56, "unit": "ng/mL"}, {"measurement": "concentration at 24 h", "setting": "[5]", "result": 0.52, "unit": "ng/mL"}, {"measurement": "concentration at 24 h", "setting": "[6]", "result": 0.51, "unit": "ng/mL"}, {"measurement": "concentration at 0 h", "setting": "[7]", "result": 33.3, "unit": "ng/mL"}, {"measurement": "concentration at 0 h", "setting": "[8]", "result": 37.9, "unit": "ng/mL"}, {"measurement": "concentration at 0 h", "setting": "[9]", "result": 39.6, "unit": "ng/mL"}, {"measurement": "concentration at 10 min", "setting": "[7]", "result": 52.5, "unit": "ng/mL"}, {"measurement": "concentration at 10 min", "setting": "[8]", "result": 48.3, "unit": "ng/mL"}, {"measurement": "concentration at 10 min", "setting": "[9]", "result": 46.3, "unit": "ng/mL"}, {"measurement": "concentration at 0.5 h", "setting": "[7]", "result": 59.8, "unit": "ng/mL"}, {"measurement": "concentration at 0.5 h", "setting": "[8]", "result": 51.9, "unit": "ng/mL"}, {"measurement": "concentration at 0.5 h", "setting": "[9]", "result": 48.6, "unit": "ng/mL"}, {"measurement": "concentration at 1 h", "setting": "[7]", "result": 57.7, "unit": "ng/mL"}, {"measurement": "concentration at 1 h", "setting": "[8]", "result": 56.5, "unit": "ng/mL"}, {"measurement": "concentration at 1 h", "setting": "[9]", "result": 57.7, "unit": "ng/mL"}, {"measurement": "concentration at 2 h", "setting": "[7]", "result": 42.5, "unit": "ng/mL"}, {"measurement": "concentration at 2 h", "setting": "[8]", "result": 41.6, "unit": "ng/mL"}, {"measurement": "concentration at 2 h", "setting": "[9]", "result": 42.2, "unit": "ng/mL"}, {"measurement": "concentration at 4 h", "setting": "[7]", "result": 17.5, "unit": "ng/mL"}, {"measurement": "concentration at 4 h", "setting": "[8]", "result": 20.3, "unit": "ng/mL"}, {"measurement": "concentration at 4 h", "setting": "[9]", "result": 20.3, "unit": "ng/mL"}, {"measurement": "concentration at 6 h", "setting": "[7]", "result": 6.43, "unit": "ng/mL"}, {"measurement": "concentration at 6 h", "setting": "[8]", "result": 7.69, "unit": "ng/mL"}, {"measurement": "concentration at 6 h", "setting": "[9]", "result": 7.71, "unit": "ng/mL"}, {"measurement": "concentration at 8 h", "setting": "[7]", "result": 3.15, "unit": "ng/mL"}, {"measurement": "concentration at 8 h", "setting": "[8]", "result": 3.77, "unit": "ng/mL"}, {"measurement": "concentration at 8 h", "setting": "[9]", "result": 3.34, "unit": "ng/mL"}, {"measurement": "concentration at 12 h", "setting": "[7]", "result": 1.5, "unit": "ng/mL"}, {"measurement": "concentration at 12 h", "setting": "[8]", "result": 1.74, "unit": "ng/mL"}, {"measurement": "concentration at 12 h", "setting": "[9]", "result": 1.64, "unit": "ng/mL"}, {"measurement": "concentration at 24 h", "setting": "[7]", "result": 0.78, "unit": "ng/mL"}, {"measurement": "concentration at 24 h", "setting": "[8]", "result": 0.87, "unit": "ng/mL"}, {"measurement": "concentration at 24 h", "setting": "[9]", "result": 0.85, "unit": "ng/mL"}, {"measurement": "concentration at 48 h", "setting": "[7]", "result": 0.62, "unit": "ng/mL"}, {"measurement": "concentration at 48 h", "setting": "[8]", "result": 0.21, "unit": "ng/mL"}, {"measurement": "concentration at 0 h", "setting": "[10]", "result": 88.6, "unit": "ng/mL"}, {"measurement": "concentration at 0 h", "setting": "[11]", "result": 82.3, "unit": "ng/mL"}, {"measurement": "concentration at 10 min", "setting": "[12]", "result": 121, "unit": "ng/mL"}, {"measurement": "concentration at 10 min", "setting": "[10]", "result": 110, "unit": "ng/mL"}, {"measurement": "concentration at 10 min", "setting": "[11]", "result": 121, "unit": "ng/mL"}, {"measurement": "concentration at 0.5 h", "setting": "[12]", "result": 130, "unit": "ng/mL"}, {"measurement": "concentration at 0.5 h", "setting": "[10]", "result": 125, "unit": "ng/mL"}, {"measurement": "concentration at 0.5 h", "setting": "[11]", "result": 130, "unit": "ng/mL"}, {"measurement": "concentration at 1 h", "setting": "[12]", "result": 124, "unit": "ng/mL"}, {"measurement": "concentration at 1 h", "setting": "[10]", "result": 118, "unit": "ng/mL"}, {"measurement": "concentration at 1 h", "setting": "[11]", "result": 116, "unit": "ng/mL"}, {"measurement": "concentration at 2 h", "setting": "[12]", "result": 83.5, "unit": "ng/mL"}, {"measurement": "concentration at 2 h", "setting": "[10]", "result": 86.6, "unit": "ng/mL"}, {"measurement": "concentration at 2 h", "setting": "[11]", "result": 86.5, "unit": "ng/mL"}, {"measurement": "concentration at 4 h", "setting": "[12]", "result": 45.6, "unit": "ng/mL"}, {"measurement": "concentration at 4 h", "setting": "[10]", "result": 50, "unit": "ng/mL"}, {"measurement": "concentration at 4 h", "setting": "[11]", "result": 45.6, "unit": "ng/mL"}, {"measurement": "concentration at 6 h", "setting": "[12]", "result": 20.3, "unit": "ng/mL"}, {"measurement": "concentration at 6 h", "setting": "[10]", "result": 23.5, "unit": "ng/mL"}]}]}
